Measurements from US9023853B2, “Janus kinase 2 (JAK2) inhibitor for the treatment of lupus” (Cephalon, Inc., priority 2010, dated 2015).

How the values were obtained:
[1] = system: anti-chromatin antibody secreting cells (ASCs); experiment: Anti-chromatin antibody secreting B-cell Elispot, MRL/lpr spleen; type: in vivo, mouse; details: MRL/lpr mice; 100 mg/kg; p<0.001
Experimental: B-cell Elispot components were ordered from MabTech (Nacka Strand, Sweden) and nitrocellulose IP filter plates were ordered from Millipore (Billerica, Mass.). […] Spleens were processed using glass homogenization, filtered through a 60 μm sterile cell strainer and red blood cells (RBCs) lysed using BioLegend (San Diego, Calif.) lysis buffer. Processed splenocytes were added to each well in culture medium. To avoid skewing of true ex vivo frequencies of antibody secreting cell types (ASCs), cells were not stimulated with a polyclonal mitogen like LPS, but rather incubated in media alone to allow monitoring of genuine ex vivo antibody release. Anti-mouse pan-IgG was used as a positive control for total IgG producing ASCs and was used to normalize results. Frequencies for each antigen were identified in an initial test phase for each model. […] Different numbers of splenocytes were added for different antigens due to saturation limits of spot frequencies per well. These limits were previously established. B-cell Elispots were incubated overnight at 37° C. To develop each assay, secondary antibody was added to each well, incubated, washed and alkaline phosphatase strepavidin was used as the conjugate; substrate used was BCIP-NBT. Plates were developed until spots were visible. […]

pSTAT3 = experiment: Pharmacodynamic renal pSTAT3 (JAK2 inhibition marker) in MRL/lpr mice; type: in vivo, mouse; details: four hours after final dosing at EOS
Source text: (§1) MRL/lpr mice were first randomized, initial bleeds collected, and body weights recorded for baseline measurements (FIG. 1). All mice were individually ear tagged and were monitored throughout the entire experiment (e.g., “Group#-Cage letter-Mouse#”, so “3B5”=Group 3 (G3), cage B, mouse#5). Mice were age-matched and treatment started at 6-8 weeks of age. Cheek bleeds and urine collection continued weekly throughout the experiment. Mice were individually tracked for several parameters including cytokine and ANA levels, proteinuria, body mass, lymphomegaly, general health, and mortality. All parameters were evaluated bi-monthly except mortality which was monitored daily. All groups consisted of a minimum of at least 10-12 mice per group. Ex vivo experiments included flow cytometry analyses for plasma cells, serum complement C3 and ANA levels; urine protein and leukocytes, serum cytokine profiling, renal histo pathology, and determination of compound levels (pharmacokinetics (PK)) in the spleen, kidney and plasma. Mice were tracked on an individual basis. For all data, mice were grouped into populations and data graphed as mean±SEM. Bi-monthly observations and data collected were recorded for each group, except mortality which was performed daily. End-stage readouts were analyzed as described in the MATERIALS AND METHODS section (above) and in FIG. 1. […]

C3 = experiment: Serum complement C3 in MRL/lpr mice; type: in vivo, mouse
Source text: as §1

[2] = mouse, in vivo
Source text: as §1

TNFα = experiment: Serum TNFα in NZM mice; type: in vivo, mouse
Experimental: For the processing of serum samples for cytokine analysis, frozen plasma at −80° C. was thawed on ice, vortexed, and centrifuged for 10 minutes to remove debris and aggregates. A total of 25-50 μL of serum was used for Luminex® assays following the manufacturer's instructions. Ten different mouse cytokines were measured using the mouse cytokine 10-plex bead kit (Invitrogen, Carlsbad, Calif., no. LMC0001). Briefly, filter plates (Millipore, Billerica, Mass., no. MAIPSWU10), were pre-wet with 200 μL of wash solution (kit component) and 25 μL of beads were added per well. […]
Age mated, female, NZM or NZW/LacJ, mice were matured for the study of lupus nephritis for a total of 7 months or 210 days at which time urine was collected for proteinuria detection. Mice with 0.5-1.0 mg/ml of urine protein as determined by an optical density-based total protein precipitation assay and cross-checked for 30-300 mg/dl of protein as determined by a stick assay were considered proteinuria positive and selected for study entry. […] End-stage lupus nephritis was evaluated by histopathology and scored by a board certified pathologist for the assessment of total renal damage in diseased animals using the scoring method described by Smith et al (Smith, Dong et al. 2007). […]

In the case of `CN1CCN(c2cccc(Nc3nc4c(-c5ccc(S(C)(=O)=O)cc5)cccn4n3)c2)CC1` [COMPOUND A, [8-(4-methanesulfonyl-phenyl)-[1,2,4]triazolo[1,5-a]pyridin-2-yl]-[3-(4-methyl-piperazin-1-yl)-phenyl]-amine], the “frequency of anti-chromatin ASCs in the spleen, decrease vs vehicle” value [1] is reported as 89.1%, the “renal pSTAT3” value (pSTAT3; 55 mg/kg) is reported as “Significant reductions” and the “renal pSTAT3” value (pSTAT3; 100 mg/kg) is reported as “Significant reductions”. For the same compound, the “serum C3 increase over vehicle” value (C3; 55 mg/kg p.o. b.i.d.) was 51.4%, the “serum C3 increase over vehicle” value (C3; 100 mg/kg p.o. b.i.d.) was 52.5% and the overt toxicity [2] was “overt toxicity was not observed”. The “serum TNFα decrease compared to vehicle” value (TNFα; 55 mg/kg) was 92.3% and the “serum TNFα decrease compared to vehicle” value (TNFα; 100 mg/kg) was 88.3%.
